Test results reported in patent US20250122218A1, “MODULATORS OF CYSTIC FIBROSIS TRANSMEMBRANE CONDUCTANCE REGULATOR” (Vertex Pharmaceuticals Incorporated, priority 2022, published 2025).

Biological target: T1, CFTR in F508del/MF-HBE cells (Homo sapiens, UniProt P13569, DEL508-508)
T1 construct: human bronchial epithelial (HBE) cells derived from CF subjects heterozygous for F508del and a minimal function CFTR mutation; endogenous in cells; host or cells: primary human bronchial epithelial cells from CF subjects (F508del/MF-HBE)
T1 sequence (P13569 with tags, fused parts or gaps DEL508-508): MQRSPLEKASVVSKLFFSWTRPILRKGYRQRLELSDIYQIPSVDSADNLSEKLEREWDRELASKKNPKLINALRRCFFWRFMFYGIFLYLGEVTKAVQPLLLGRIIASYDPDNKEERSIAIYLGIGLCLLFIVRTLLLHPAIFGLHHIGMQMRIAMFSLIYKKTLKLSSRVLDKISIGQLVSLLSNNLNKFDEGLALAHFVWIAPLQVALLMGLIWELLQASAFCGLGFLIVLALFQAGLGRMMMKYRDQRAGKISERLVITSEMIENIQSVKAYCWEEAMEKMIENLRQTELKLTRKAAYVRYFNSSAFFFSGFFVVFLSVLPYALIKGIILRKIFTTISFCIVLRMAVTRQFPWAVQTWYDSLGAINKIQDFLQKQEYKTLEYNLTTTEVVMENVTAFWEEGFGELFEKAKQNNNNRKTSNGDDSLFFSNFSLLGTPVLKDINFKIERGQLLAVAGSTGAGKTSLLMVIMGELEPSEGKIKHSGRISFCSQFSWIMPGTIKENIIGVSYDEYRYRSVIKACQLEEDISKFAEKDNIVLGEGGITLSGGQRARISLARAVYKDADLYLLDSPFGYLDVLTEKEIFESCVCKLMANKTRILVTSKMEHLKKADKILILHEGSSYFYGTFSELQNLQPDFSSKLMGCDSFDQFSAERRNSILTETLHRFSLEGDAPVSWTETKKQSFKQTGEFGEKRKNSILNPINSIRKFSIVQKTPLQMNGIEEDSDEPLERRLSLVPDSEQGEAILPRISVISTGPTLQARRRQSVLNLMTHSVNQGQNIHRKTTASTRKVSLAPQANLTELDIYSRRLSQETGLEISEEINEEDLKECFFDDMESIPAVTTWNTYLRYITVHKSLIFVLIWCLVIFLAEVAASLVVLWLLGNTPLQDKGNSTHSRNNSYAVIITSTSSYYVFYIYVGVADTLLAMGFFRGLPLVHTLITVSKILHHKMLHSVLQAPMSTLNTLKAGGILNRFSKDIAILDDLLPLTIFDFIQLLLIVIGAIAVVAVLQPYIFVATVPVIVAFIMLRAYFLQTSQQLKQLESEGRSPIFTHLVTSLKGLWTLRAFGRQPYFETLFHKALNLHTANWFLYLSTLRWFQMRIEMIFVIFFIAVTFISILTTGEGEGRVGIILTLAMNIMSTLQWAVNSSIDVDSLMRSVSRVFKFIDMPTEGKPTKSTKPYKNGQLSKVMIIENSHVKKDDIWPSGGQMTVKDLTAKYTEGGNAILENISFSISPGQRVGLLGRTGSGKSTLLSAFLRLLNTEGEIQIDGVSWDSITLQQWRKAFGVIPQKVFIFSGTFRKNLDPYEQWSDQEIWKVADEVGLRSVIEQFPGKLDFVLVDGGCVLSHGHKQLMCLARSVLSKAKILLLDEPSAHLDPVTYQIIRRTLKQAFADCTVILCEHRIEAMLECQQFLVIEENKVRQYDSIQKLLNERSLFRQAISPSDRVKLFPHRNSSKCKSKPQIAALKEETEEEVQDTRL
Test: Ussing chamber assay of CFTR-mediated short-circuit currents (identification of potentiator compounds)
Format: cell-based
Settings: potentiator incubated 18-24 hours at 37° C. in combination with 10 μM corrector, in the presence of 20% human serum, CFTR-mediated ISC
Summary of the method: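 Short-circuit current was measured in Ussing chambers at 37° C, Vhold 0 mV, 30 μM apical amiloride. CFTR current was defined as the forskolin (20 μM) response relative to the current remaining after BPO/GlyH-101/inhibitor 172 (20 μM each). Before recording, cells had 18-24 h exposure to test potentiators with 10 μM corrector compound in 20% human serum.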

Compound | EC50 [nM]
Nc1cc(C(F)(F)F)c2nc1-c1nnc(o1)[C@@](O)(C(F)(F)F)CCCCCN(c1cccnc1)C2=O [Compound 126, (6R)-17-amino-6-hydroxy-12-(3-pyridyl)-6,15-bis (trifluoromethyl)-19-oxa-3,4,12,18-tetrazatricyclo [12.3.1.12,5] nonadeca-1(18),2,4,14,1 6-pentaen-13-one] | > 1000
NC[C@H]1CC[C@H](N2CCCCC[C@](O)(C(F)(F)F)C3=NN=C(O3)c3nc(c(C(F)(F)F)cc3N)C2=O)CC1 [Compound 192, (6R)-17-amino-6-hydroxy-12-[trans-4-(aminomethyl)cyclohexyl]-6,15-bis(trifluoromethyl)-19-oxa-3,4,12,18-tetraazatricyclo[12.3.1.12,5]nonadeca-1(18),2,4,14,16-pentaen-13-one] | > 1000
Nc1cc(C(F)(F)F)c2nc1-c1nnc(o1)C(F)(C(F)(F)F)CCCCCCC2=O (single isomer, unassigned) [Compound 71, 17-amino-6-fluoro-6,15-bis(trifluoromethyl)-19-oxa-3,4,18-triazatricyclo[12.3.1.12,5]nonadeca-1(18),2,4,14,16-pentaen-13-one] | > 1000
N#Cc1cc(N)c2nc1C(=O)N(C1CC(F)(F)C1)CCCCCC(O)(C(F)(F)F)C1=NN=C2O1 (single isomer, unassigned) [Compound 197, 17-amino-12-(3,3-difluorocyclobutyl)-6-hydroxy-13-oxo-6-(trifluoromethyl)-19-oxa-3,4,12,18-tetrazatricyclo[12.3.1.12,5]nonadeca-1(18),2,4,14,16-pentaene-15-carbonitrile] | > 1000
Nc1cc(C(F)(F)F)c2nc1-c1nnc(o1)[C@@](O)(C(F)(F)F)CCCCCN(Cc1ccnc(OC(F)F)c1)C2=O [Compound 269, (6R)-17-amino-12-[[2-(difluoromethoxy)-4-pyridyl]methyl]-6-hydroxy-6,15-bis(trifluoromethyl)-19-oxa-3,4,12,18-tetrazatricyclo [12.3.1.12,5] nonadeca-1(18),2,4,14,16-pentaen-13-one] | > 1000
Nc1cc(C(F)(F)F)c2nc1-c1nnc(o1)[C@@](O)(C(F)(F)F)CCCCCN(CC1CC13CC3)C2=O (stereo partly drawn) [Compound 252, (6R)-17-amino-6-hydroxy-12-(spiro[2.2]pentan-2-ylmethyl)-6,15-bis(trifluoromethyl)-19-oxa-3,4,12,18-tetrazatricyclo [12.3.1.12,5] nonadeca-1(18),2,4,14,16-pentaen-13-one] | < 500
COc1cc(F)ccc1CN1CCCCC[C@](O)(C(F)(F)F)C2=NN=C(O2)c2nc(c(C(F)(F)F)cc2N)C1=O [Compound 164, (6R)-17-amino-12-[(4-fluoro-2-methoxy-phenyl)methyl]-6-hydroxy-6,15-bis (trifluoromethyl)-19-oxa-3,4,12,18-tetrazatricyclo [12.3.1.12,5] nonadeca-1(18),2,4,14,1 6-pentaen-13-one] | < 500

Other lines, results leading:

EC50 [nM] | Compound
< 500 | Nc1cc(C(F)(F)F)c2nc1-c1nnc(o1)[C@@](O)(C(F)(F)F)CCCCCN(CC1C3(CC3)C13CC3)C2=O [Compound 245, (6R)-17-amino-12-(dispiro[2.0.24.13]heptan-7-ylmethyl)-6-hydroxy-6,15-bis(trifluoromethyl)-19-oxa-3,4,12,18-tetrazatricyclo [12.3.1.12,5] nonadeca-1(18),2,4,14,16-pentaen-13-one]
< 500 | Nc1cc(C(F)(F)F)c2nc1-c1nnc(o1)C(O)(C(F)(F)F)CCCCN(Cc1ccccc1)C(=O)C2 (centres unmarked) [Compound 51, 17-amino-11-benzyl-6-hydroxy-6,15-bis(trifluoromethyl)-19-oxa-3,4,11,18-tetrazatricyclo[12.3.1.12,5]nonadeca-1(18),2,4,14,16-pentaen-12-one]
< 500 | Nc1cc(C(F)(F)F)c2nc1-c1nnc(o1)[C@@](O)(C(F)(F)F)CCCCCN(Cc1cccc(C3(C(F)(F)F)CC3)c1)C2=O [Compound 220, (6R)-17-amino-6-hydroxy-6,15-bis(trifluoromethyl)-12-[[3-[1-(trifluoromethyl)cyclopropyl]phenyl]methyl]-19-oxa-3,4,12,18-tetrazatricyclo [12.3.1.12,5] nonadeca-1(18),2,4,14,16-pentaen-13-one]
< 500 | Nc1cc(C(F)(F)F)c2nc1-c1nnc(o1)[C@@](O)(C(F)(F)F)CCCCCN(CC1CCCOC1)C2=O (mixture of isomers) [Compound 131, (6R)-17-Amino-6-hydroxy-12-(tetrahydropyran-3-ylmethyl)-6,15-bis (trifluoromethyl)-19-oxa-3,4,12,18-tetrazatricyclo [12.3.1.12,5] nonadeca-1(18),2,4,14,1 6-pentaen-13-one]
< 500 | Nc1cc(C(F)(F)F)c2nc1-c1nnc(o1)[C@@](O)(C(F)(F)F)CCCCCN(C1C3CC1C3)C2=O (stereo partly drawn) [Compound 92, (6R)-17-Amino-12-(2-bicyclo[1.1.1]pentanyl)-6-hydroxy-6,15-bis(trifluoromethyl)-19-oxa-3,4,12,18-tetrazatricyclo [12.3.1.12,5] nonadeca-1(18),2,4,14,1 6-pentaen-13-one]
< 500 | CC1(C)CCCCC[C@@](O)(C(F)(F)F)C2=NN=C(O2)c2nc(c(C(F)(F)F)cc2N)C1=O [Compound 46, (6S)-17-amino-6-hydroxy-12,12-dimethyl-6,15-bis(trifluoromethyl)-19-oxa-3,4,18-triazatricyclo[12.3.1.12,5]nonadeca-1(18),2,4,14,16-pentaen-13-one]
< 500 | CC1(N2CCCCC[C@](O)(C(F)(F)F)C3=NN=C(O3)c3nc(c(C(F)(F)F)cc3N)C2=O)CCCCC1 [Compound 219, (6R)-17-amino-6-hydroxy-12-(1-methylcyclohexyl)-6,15-bis(trifluoromethyl)-19-oxa-3,4,12,18-tetrazatricyclo [12.3.1.12,5] nonadeca-1(18),2,4,14,16-pentaen-13-one]
< 500 | Nc1cc(C(F)(F)F)c2nc1-c1nnc(o1)[C@@](O)(C(F)(F)F)CCCCCN(Cc1cccc(OCC3(C(F)(F)F)CC3)c1)C2=O [Compound 223, (6R)-17-amino-6-hydroxy-6,15-bis(trifluoromethyl)-12-[[3-[[1-(trifluoromethyl)cyclopropyl]methoxy]phenyl]methyl]-19-oxa-3,4,12,18-tetrazatricyclo [12.3.1.12,5] nonadeca-1(18),2,4,14,16-pentaen-13-one]
< 500 | Cc1cc(CN2CCCCC[C@](O)(C(F)(F)F)C3=NN=C(O3)c3nc(c(C(F)(F)F)cc3N)C2=O)cc(OC(F)(F)F)c1 [Compound 179, (6R)-17-amino-6-hydroxy-12-[[3-methyl-5-(trifluoromethoxy)phenyl]methyl]-6,15-bis (trifluoromethyl)-19-oxa-3,4,12,18-tetrazatricyclo [12.3.1.12,5] nonadeca-1(18),2,4,14,1 6-pentaen-13-one]
< 500 | Nc1cc(C(F)(F)F)c2nc1-c1nnc(o1)[C@@](O)(C(F)(F)F)CCCCCN(Cc1ccc(F)c(C3CC3)c1)C2=O [Compound 255, (6R)-17-amino-12-[(3-cyclopropyl-4-fluoro-phenyl)methyl]-6-hydroxy-6,15-bis(trifluoromethyl)-19-oxa-3,4,12,18-tetrazatricyclo [12.3.1.12,5] nonadeca-1(18),2,4,14,16-pentaen-13-one]
